Where a SMILES comes first, the peptide text is derived from it. Where no end group is shown, it is not given here. The star is where a group is joined. X1 = CCCCCCCCCCCCCCCCOCCOCCOC(=O)*
Tests used:
[1] = Extraction and detection of enkephalin conjugates from the brain of dosed rats (HPLC); type: in vivo; conditions: rat brain removed 10 minutes after dosing; 5 mg/kg cetyl-PEG2-enkephalin; compared with standard peak
Method: The following procedure was used to identify the presence of conjugate from the brain specimen of animals dosed with 5 mg/kg cetyl-PEG2-enkephalin SEQ ID NO: 1.
After 10 minutes of dosing, the brain of the animal was perfused with 1.5% triflouroacetic acid in PBS solution, and the brain was removed and frosen at −70° C. The brain was homogenized with 1 mL of 1.5% triflouroacetic acid in PBS solution and the homogenate was extracted with acetonitrile/isopropanol solution. The extract was treated with saturated sodium chloride solution and frozen at −20° C. for 2 hours. The organic layer was isolated and centrifuged at 4000 RPM. The supernatant was evaporated and the resulting residue was reconstituted in acetonitrile/isopropanol/water mixture. The reconstituted solution was analyzed by HPLC using a gradient of 10 to 100% isopropanol/water (0.1% trifloiroacetic acid) on a C-18 column. The presence and the concentration of cetyl-PEG2-enkephalin SEQ ID NO: 1 conjugate in the extract were measured by comparing the retention time and the peak area of standard solution under the same analytical condition.

Sprague-Dawley rats = assay: Rat paw-hot plate test; type: in vivo; conditions: for Mean Analgesia as Compared with Morphine at 3 mg/Kg @ 5 min / Mean Analgesia as Compared with Morphine at 3 mg/Kg @ 30 min: hot plate 52° C., dose (mg/kg): Morphine 3, Enkephalin 20, Cetyl 5, DHA 20, Cholesterol 5, Linolenic 10; for analgesic effect as compared to morphine as a baseline: hot plate, time not stated, enkephalin 20 mg/kg
Method: Adult, male Sprague-Dawley rats weighing 150-175 g were obtained from Charles River Breeding Laboratories (Raleigh, NC) and used for all animal studies. Rats were housed in hanging wire-bottomed cages in a vivarium equipped with a 12:12 light:dark cycle and humidity was maintained between 45-65% with a room temperature of […]. Rats were provided Purina Rodent Chow and tap water ad libitum.
Met-enkephalin-lys SEQ ID NO: 49 and met-enkephalin-lys SEQ ID NO: 1 derivatives were assessed for analgesic activity by rat paw-hot plate assay. Rats were given an injection of naloxone at 0.5 mg/kg (s.c.) then administered a single administration of cetyl-enkephalin SEQ ID NO: 1 by the tail vein 10 minutes later at a dose of 5.0 mg/kg.
In a separate study, rats were administered cetyl-enkephalin SEQ ID NO: 1 (5.0 mg/kg, i.v.) or clonidine (0.125 mg/kg, i.v.).
The latency to rat paw withdrawal from the hot plate was measured by a Hot Plate Analgesia Meter (Harvard Apparatus Ltd., Kent, England). The temperature of the hot plate was set and calibrated at 52° C. and rats were removed from the heat stimulus by 36 seconds after placement. Latency trials were terminated when the animal was either licking a hind paw or initiating a jump from the plate. Baseline measurements were collected 1 hour prior to drug administration and at various times post-injection, dependent upon the study conducted. All hot plate testing was terminated by 1 hour after drug dosing.

μ-receptor = target: T1, μ-receptor (Rattus norvegicus, UniProt P33535); assay: % SPECIFIC BINDING; conditions: 0.1 µM
T1 construct: assessed for analgesic activity by rat paw-hot plate assay; from tissue; host or cells: whole living rat (in vivo)
From the text: Table printed on a drawing sheet, FIG.8
Head of the field: % […] BINDING
First copying reader's note: The title is printed as the top row inside the table frame and is given as the title, not as a grid row.

T1 sequence (P33535 whole entry, looked up): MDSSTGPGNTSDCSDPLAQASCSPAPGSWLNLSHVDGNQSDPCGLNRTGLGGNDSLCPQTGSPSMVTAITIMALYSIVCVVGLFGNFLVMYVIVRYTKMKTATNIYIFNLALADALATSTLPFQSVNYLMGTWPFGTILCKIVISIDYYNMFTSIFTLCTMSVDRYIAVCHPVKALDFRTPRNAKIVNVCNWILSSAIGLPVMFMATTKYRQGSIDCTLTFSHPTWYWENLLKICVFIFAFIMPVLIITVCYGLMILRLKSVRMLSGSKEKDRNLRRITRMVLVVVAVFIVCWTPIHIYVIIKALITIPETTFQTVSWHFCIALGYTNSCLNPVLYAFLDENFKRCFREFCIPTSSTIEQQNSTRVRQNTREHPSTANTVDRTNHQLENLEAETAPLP

| Compound | Mean Analgesia as Compared with Morphine at 3 mg/Kg @ 5 min (Sprague-Dawley rats) | Mean Analgesia as Compared with Morphine at 3 mg/Kg @ 30 min (Sprague-Dawley rats) | % SPECIFIC BINDING (μ-receptor) | further results |
| --- | --- | --- | --- | --- |
| CCCCCCCCCCCCCCCCOCCOCCOC(=O)NCCCC[C@H](NC(=O)[C@H](CCSC)NC(=O)[C@H](Cc1ccccc1)NC(=O)CNC(=O)CNC(=O)[C@@H](N)Cc1ccc(O)cc1)C(=O)O [Cetyl-PEG-ENK, CETYL MET-ENKEPHALIN-LYS] (H-YGGFMK(X1)-OH) |  |  |  | Presence of conjugate peak in brain extract (HPLC) [1]: actually present in the brain exact |
| CN1CC[C@]23c4c5ccc(O)c4O[C@H]2[C@@H](O)C=C[C@H]3[C@H]1C5 [Morphine, reference compound] | 100% | 100% |  |  |
| CETYL-PEG2-ENK (SEQ ID NO: 1) (YGGFMK; also: cetyl-PEG2 conjugate, site not given here) [CETYL-ENK] |  |  | 100% |  |
| CETYL-PEG3-ENK (SEQ ID NO: 1) (YGGFMK; also: cetyl-PEG3 conjugate, site not given here) [CETYL-TEG-ENK] |  |  | 100% |  |
| CHOLESTEROL-PEG3-ENK (SEQ ID NO: 1) (YGGFMK; also: cholesterol-PEG3 conjugate, site not given here) [CHOL-ENK] |  |  | 95% |  |
| DHA MET-ENKEPHALIN-LYS [DHA-PEG-ENK] | 130% | 67% |  | analgesic effect as compared to morphine as a baseline (Sprague-Dawley rats): 130% |
| DHA-PEG2-ENK (SEQ ID NO: 1) (YGGFMK; also: DHA-PEG2 conjugate, site not given here) [DHA-ENK] |  |  | 63% |  |
| LINOLEIC MET-ENKEPHALIN-LYS [Linolenic-PEG-ENK] | 77% | 73% |  |  |
| Met enkephalin-lys (YGGFMK) [reference compound] | 0% | 0% |  | Presence of conjugate peak in brain extract (HPLC) [1]: neither the vehicle (FIG. 5C) nor the unconjugated enkephalin SEQ ID NO: 49 (FIG. 5D) showed a corresponding peak; analgesic effect as compared to morphine as a baseline (Sprague-Dawley rats): 0% |
| PALMITATE-PEG3-ENK (SEQ ID NO: 1) [PALM-ENK] |  |  | 76% |  |
